Reference: ChEMBL document CHEMBL3393028, “Discovery and characterization of MAPK-activated protein kinase-2 prevention of activation inhibitors” (J Med Chem, 2015)
≈ marks a conversion by molar mass, not a printed value. Calls of active or inactive are those of the source. The calls are words filed in the database; no cut-off is given here.

How the values were obtained:
[1] = molecular target: T1, Mitogen-activated protein kinase 14 (Homo sapiens, UniProt Q16539); experiment: Inhibition of human recombinant 5'-c-myc, His6-tagged p38-alpha using MK2 (46 to 400) as substrate assessed as inhibition of phosphorylation after 60 mins by ELISA in presence of ATP
T1 sequence (Q16539 whole entry): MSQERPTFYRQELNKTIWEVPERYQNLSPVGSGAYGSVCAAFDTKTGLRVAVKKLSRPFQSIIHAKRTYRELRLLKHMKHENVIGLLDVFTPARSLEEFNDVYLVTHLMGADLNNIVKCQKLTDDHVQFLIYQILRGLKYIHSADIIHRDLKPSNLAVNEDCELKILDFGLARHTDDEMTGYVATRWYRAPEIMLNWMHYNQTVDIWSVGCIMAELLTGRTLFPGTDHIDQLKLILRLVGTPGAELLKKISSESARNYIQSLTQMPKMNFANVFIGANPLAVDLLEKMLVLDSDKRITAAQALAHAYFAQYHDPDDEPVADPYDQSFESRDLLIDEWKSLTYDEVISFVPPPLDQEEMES

Cytochrome P450 3A4 = Cytochrome P450 3A4 (Homo sapiens, UniProt P08684); experiment: Inhibition of CYP3A4 (unknown origin); format: ADME
Sequence of Cytochrome P450 3A4 (P08684 whole entry): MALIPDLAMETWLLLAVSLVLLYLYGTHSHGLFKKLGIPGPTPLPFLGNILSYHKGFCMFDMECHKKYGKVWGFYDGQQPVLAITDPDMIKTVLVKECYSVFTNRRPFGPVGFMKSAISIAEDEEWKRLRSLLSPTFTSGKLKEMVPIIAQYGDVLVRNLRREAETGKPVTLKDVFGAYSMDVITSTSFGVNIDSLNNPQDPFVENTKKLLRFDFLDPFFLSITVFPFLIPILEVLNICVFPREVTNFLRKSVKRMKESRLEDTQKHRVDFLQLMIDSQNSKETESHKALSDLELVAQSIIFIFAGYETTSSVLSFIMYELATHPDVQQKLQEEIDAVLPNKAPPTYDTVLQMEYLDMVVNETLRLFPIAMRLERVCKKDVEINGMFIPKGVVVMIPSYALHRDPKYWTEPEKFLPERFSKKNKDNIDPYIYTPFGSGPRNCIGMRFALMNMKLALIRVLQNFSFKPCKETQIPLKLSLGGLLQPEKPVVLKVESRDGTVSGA

[2] = molecular target: T1, Mitogen-activated protein kinase 14; experiment: Inhibition of human recombinant 5'-c-myc, His6-tagged p38-alpha using MSK1 as substrate assessed as inhibition of phosphorylation after 60 mins by ELISA in presence of ATP
[3] = molecular target: T1, Mitogen-activated protein kinase 14; experiment: Inhibition of p38-alpha (unknown origin) by p38alpha-MBP IoC assay
[4] = Intrinsic clearance in rat hepatocytes assessed per 10^6 cells; format: ADME, cell-based, Hepatocyte; conditions: read-out: CLH
[5] = molecular target: T1, Mitogen-activated protein kinase 14; experiment: Inhibition of p38-alpha in human TC28 cells assessed as inhibition of IL-1-induced PGE2 production incubated for 20 mins prior to IL-1 challenge measured after 24 hrs by ELISA; format: cell-based
[6] = Thermodynamic solubility of the compound at pH 7.4; format: physicochemical; conditions: buffer, read-out: Therm_solubility
[7] = Fraction unbound in rat plasma by equilibrium dialysis method; format: ADME, cell-free
[8] = Intrinsic clearance in human liver microsomes; format: ADME; conditions: read-out: CLH
[9] = Fraction unbound in human plasma by equilibrium dialysis method; format: ADME, cell-free
[10] = molecular target: T1, Mitogen-activated protein kinase 14; experiment: Competitive inhibition of human recombinant 5'-c-myc, His6-tagged p38-alpha using MK2 (46-400) as substrate
[11] = molecular target: MAP kinase-activated protein kinase 2 (Homo sapiens) (UniProt P49137); experiment: Binding affinity to phosphorylated full length 2H,15N-labeled MK2 (unknown origin) expressed in Escherichia coli by 2D-NMR analysis
Sequence of MAP kinase-activated protein kinase 2 (Homo sapiens) (P49137 whole entry, looked up): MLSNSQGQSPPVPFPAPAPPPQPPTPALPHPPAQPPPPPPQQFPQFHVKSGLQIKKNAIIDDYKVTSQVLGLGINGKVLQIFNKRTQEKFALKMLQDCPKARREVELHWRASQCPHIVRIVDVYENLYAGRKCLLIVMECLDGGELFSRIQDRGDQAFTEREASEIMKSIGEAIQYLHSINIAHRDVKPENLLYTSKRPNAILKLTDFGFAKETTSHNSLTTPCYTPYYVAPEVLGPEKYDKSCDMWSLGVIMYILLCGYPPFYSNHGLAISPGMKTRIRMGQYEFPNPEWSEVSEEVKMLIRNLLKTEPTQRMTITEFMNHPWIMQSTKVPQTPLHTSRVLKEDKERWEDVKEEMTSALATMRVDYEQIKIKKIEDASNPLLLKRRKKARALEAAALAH

[12] = molecular target: T1, Mitogen-activated protein kinase 14; experiment: Displacement of 1-[7-[3-[4-(aminomethyl)-1-piperidyl]propoxy]-6-methoxy-quinazolin-4-yl]-3-(2-chloro-6-methylphenyl)urea from GST-tagged phosphorylated p38-alpha (unknown origin) by surface plasmon resonance based ISA method
[13] = molecular target: T1, Mitogen-activated protein kinase 14; experiment: Inhibition of p38-alpha in human PBMC assessed as inhibition of LPS-induced TNF-alpha production incubated for 30 mins prior to LPS challenge measured after 7 hrs by ELISA
[14] = molecular target: Insulin-like growth factor 1 receptor (Homo sapiens) (UniProt P08069); conditions: 10 uM
Sequence of Insulin-like growth factor 1 receptor (Homo sapiens) (P08069 31-736 limits assumed): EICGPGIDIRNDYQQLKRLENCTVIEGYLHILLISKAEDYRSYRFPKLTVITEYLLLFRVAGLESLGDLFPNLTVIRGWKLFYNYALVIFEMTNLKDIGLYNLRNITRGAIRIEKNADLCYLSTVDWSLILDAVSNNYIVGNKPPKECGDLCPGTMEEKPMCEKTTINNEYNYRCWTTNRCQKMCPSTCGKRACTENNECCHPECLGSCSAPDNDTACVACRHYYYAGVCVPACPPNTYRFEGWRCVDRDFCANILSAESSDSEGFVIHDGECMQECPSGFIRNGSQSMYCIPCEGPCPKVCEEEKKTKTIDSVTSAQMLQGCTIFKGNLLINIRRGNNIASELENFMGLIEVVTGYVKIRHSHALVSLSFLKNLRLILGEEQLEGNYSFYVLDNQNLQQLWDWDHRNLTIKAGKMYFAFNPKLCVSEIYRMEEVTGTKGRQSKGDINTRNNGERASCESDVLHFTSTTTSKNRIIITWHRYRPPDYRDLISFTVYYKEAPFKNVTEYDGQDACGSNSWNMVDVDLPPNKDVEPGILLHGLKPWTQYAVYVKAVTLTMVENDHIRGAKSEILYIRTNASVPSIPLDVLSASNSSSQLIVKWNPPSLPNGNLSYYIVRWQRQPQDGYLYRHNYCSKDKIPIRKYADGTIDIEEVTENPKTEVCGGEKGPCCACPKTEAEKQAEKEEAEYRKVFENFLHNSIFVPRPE
Sequence of Insulin-like growth factor 1 receptor (Homo sapiens) (P08069 741-1367 limits assumed): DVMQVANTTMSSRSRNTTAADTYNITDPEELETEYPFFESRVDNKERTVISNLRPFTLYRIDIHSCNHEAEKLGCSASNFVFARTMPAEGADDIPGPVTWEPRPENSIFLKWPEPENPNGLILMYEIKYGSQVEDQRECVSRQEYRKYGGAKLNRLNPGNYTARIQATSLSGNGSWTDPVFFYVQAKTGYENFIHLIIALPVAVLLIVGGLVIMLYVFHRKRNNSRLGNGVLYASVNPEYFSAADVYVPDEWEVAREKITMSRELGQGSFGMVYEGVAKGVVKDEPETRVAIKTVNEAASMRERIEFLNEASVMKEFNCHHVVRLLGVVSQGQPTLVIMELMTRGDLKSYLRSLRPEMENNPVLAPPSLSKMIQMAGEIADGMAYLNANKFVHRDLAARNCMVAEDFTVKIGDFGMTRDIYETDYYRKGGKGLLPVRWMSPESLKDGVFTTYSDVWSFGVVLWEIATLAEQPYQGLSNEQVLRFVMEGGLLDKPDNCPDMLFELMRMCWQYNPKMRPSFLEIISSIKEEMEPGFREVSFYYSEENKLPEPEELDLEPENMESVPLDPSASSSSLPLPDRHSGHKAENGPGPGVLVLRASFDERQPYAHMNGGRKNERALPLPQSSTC
Description: Inhibition of IGF1R (unknown origin) at 10 uM

[15] = Lipophilicity, log D of the compound at pH 7.4; format: physicochemical; conditions: buffer

IC50 [1] | IC50 (Cytochrome P450 3A4) | IC50 [2] | IC50 [3] | SMILES | further results
2100 nM | 1000 nM | 2300 nM | > 10000 nM | O=C(NCc1ccncc1)c1ccc(Oc2ccc(F)cc2)cc1 | –
76 nM | – | 5400 nM | > 10000 nM | CCCc1c(C(=O)Nc2cc(S(=O)(=O)N(C)C)ccc2C)cnn1CC(C)C | –
190 nM | – | 23000 nM | > 10000 nM | CCCc1c(C(=O)Nc2cc(S(C)(=O)=O)ccc2C)cnn1-c1ccccc1 | –
2800 nM | > 10000 nM | > 100000 nM | > 10000 nM | N#Cc1ccccc1Oc1ccc(C(=O)NCc2ccncn2)cc1 | hepatocyte CLint [4]: 23 µL/min/1e6 cells; IC50 [5]: 7100 nM; solubility thermodynamic [6]: 360 µM (≈ 119 µg/mL); fraction unbound [7]: 0.2; microsomal CLint [8]: < 2 µL/min/mg; fraction unbound [9]: 0.27
600 nM | 1000 nM | 21000 nM | > 10000 nM | N#Cc1ccccc1Oc1ccc(C(=O)NCc2ccncc2)cc1 | Ki [10]: 290 nM; Activity [11]: inactive; hepatocyte CLint [4]: 28 µL/min/1e6 cells; IC50 [5]: 25000 nM; solubility thermodynamic [6]: 120 µM (≈ 39.5 µg/mL); fraction unbound [7]: 0.14; microsomal CLint [8]: < 2 µL/min/mg; Kd [12]: > 20000 nM; IC50 [13]: 5400 nM; fraction unbound [9]: 0.085; inhibition [14]: 30%
< 46 nM | – | < 46 nM | > 10000 nM | CCCc1c(C(=O)Nc2cc(O)ccc2C)cnn1-c1ccccc1 | –
450 nM | > 10000 nM | > 100000 nM | > 10000 nM | N#Cc1ccccc1Oc1ccc(C(=O)NCc2ccccc2)cc1 | IC50 [5]: 1400 nM
490 nM | – | 500 nM | > 10000 nM | CCCc1c(C(=O)Nc2cc(C(=O)OC)ccc2C)cnn1-c1ccccc1 | –
1700 nM | – | 1700 nM | > 10000 nM | O=C(NCc1ccncc1)c1ccc(Oc2ccccc2Cl)cc1 | –
– | – | – | – | CCCc1c(C(=O)Nc2cc(S(=O)(=O)N(C)C)ccc2C)cnn1-c1ccccc1 | Activity [11]: inactive; hepatocyte CLint [4]: 42 µL/min/1e6 cells; solubility thermodynamic [6]: 0.55 µM (≈ 0.235 µg/mL); fraction unbound [7]: 0.031; microsomal CLint [8]: 62 µL/min/mg; fraction unbound [9]: 0.023; inhibition [14]: 30%
86 nM | – | 4200 nM | > 10000 nM | CCCc1c(C(=O)Nc2cc(C(=O)O)ccc2C)cnn1-c1ccccc1 | IC50 [13]: 21000 nM
> 100000 nM | – | > 100000 nM | > 10000 nM | CCCc1c(C(=O)Nc2cc(OCc3ccccc3)ccc2C)cnn1-c1ccccc1 | –
2400 nM | 1000 nM | 10000 nM | > 10000 nM | O=C(NCc1ccncc1)c1ccc(Oc2ccc(Cl)cc2)cc1 | –
270 nM | – | > 30000 nM | > 10000 nM | CCCc1c(C(=O)Nc2cc(S(=O)(=O)N(C)C)ccc2C)cnn1-c1cccnc1 | hepatocyte CLint [4]: 10 µL/min/1e6 cells; solubility thermodynamic [6]: 21 µM (≈ 8.98 µg/mL); fraction unbound [7]: 0.24; microsomal CLint [8]: 143 µL/min/mg; logD [15]: 2.3; fraction unbound [9]: 0.26
53 nM | – | 6300 nM | > 10000 nM | CCCc1c(C(=O)Nc2cc(S(=O)(=O)N(C)C)ccc2C)cnn1Cc1ccccc1 | –
110 nM | – | 2500 nM | > 10000 nM | CCCc1c(C(=O)Nc2cc(F)ccc2C)cnn1-c1ccccc1 | –
15 nM | – | 890 nM | > 10000 nM | CCCc1c(C(=O)Nc2cc(C#N)ccc2C)cnn1-c1ccccc1 | IC50 [5]: 210 nM
390 nM | – | 20000 nM | > 10000 nM | CCCc1c(C(=O)Nc2cc(S(=O)(=O)N(C)C)ccc2C)cnn1-c1ccc(Cl)cc1 | –
560 nM | > 10000 nM | 15000 nM | > 10000 nM | N#Cc1ccccc1Oc1ccc(C(=O)NCc2cccnc2)cc1 | IC50 [5]: 4700 nM
2000 nM | – | 5400 nM | > 10000 nM | Cc1ccccc1Oc1ccc(C(=O)NCc2ccncc2)cc1 | –
